Test results as given in the NIST ThermoML archive (doi:10.1016/j.jct.2011.01.006).
“And” between values parts separate entries of the source, which are not always exact repeats. Identical values can stand only once. ± gives the expanded uncertainty stated by the source.

Experiments:
[1] = Crystal, Calculated from knudsen effusion weight loss
[2] = molar enthalpy of vaporization or sublimation; details: 298.15 K; Crystal; Ebulliometric method (Recirculating still)

CC(=O)c1cccc([N+](=O)[O-])c1 [1-(3-nitrophenyl)ethanone]
[1]
Details | vapor or sublimation pressure
300.2 K | 7e-05 ± 4e-06 kPa and 6.8e-05 ± 3e-06 kPa and 6.6e-05 ± 3e-06 kPa
302.18 K | 8.8e-05 ± 4e-06 kPa and 8.9e-05 ± 4e-06 kPa
304.08 K | 0.000113 ± 6e-06 kPa and 0.000115 ± 6e-06 kPa
306.2 K | 0.000149 ± 7e-06 kPa and 0.000148 ± 7e-06 kPa and 0.000152 ± 8e-06 kPa
308.16 K | 0.000192 ± 1e-05 kPa and 0.000191 ± 1e-05 kPa and 0.000189 ± 9e-06 kPa
310.08 K | 0.000238 ± 1.2e-05 kPa and 0.000241 ± 1.2e-05 kPa and 0.000249 ± 1.2e-05 kPa
312.19 K | 0.000321 ± 1.6e-05 kPa and 0.000305 ± 1.5e-05 kPa and 0.000302 ± 1.5e-05 kPa
314.15 K | 0.000404 ± 2e-05 kPa and 0.000392 ± 2e-05 kPa and 0.000387 ± 1.9e-05 kPa
316.08 K | 0.000499 ± 2.5e-05 kPa and 0.000491 ± 2.5e-05 kPa and 0.00049 ± 2.5e-05 kPa
318.18 K | 0.000669 ± 3.4e-05 kPa and 0.000628 ± 3.1e-05 kPa and 0.000621 ± 3.1e-05 kPa
320.15 K | 0.000817 ± 4.1e-05 kPa and 0.000801 ± 4e-05 kPa and 0.00079 ± 4e-05 kPa
322.08 K | 0.001007 ± 0.0001 kPa and 0.001 ± 5e-05 kPa and 0.000997 ± 5e-05 kPa

Details | molar enthalpy [kcal/mol]
[2] | 23.69 ± 0.215

CC(=O)c1ccc([N+](=O)[O-])cc1 [1-(4-nitrophenyl)ethanone]
[1]
Details | vapor or sublimation pressure
302.19 K | 9.1e-05 ± 5e-06 kPa and 9e-05 ± 5e-06 kPa
304.15 K | 0.000121 ± 6e-06 kPa and 0.000119 ± 6e-06 kPa and 0.000118 ± 6e-06 kPa
306.07 K | 0.000149 ± 7e-06 kPa and 0.000156 ± 8e-06 kPa and 0.000151 ± 8e-06 kPa
306.19 K | 0.000148 ± 7e-06 kPa and 0.000151 ± 8e-06 kPa and 0.000147 ± 7e-06 kPa
308.16 K | 0.000192 ± 1e-05 kPa and 0.000193 ± 1e-05 kPa and 0.00019 ± 1e-05 kPa
310.07 K | 0.000239 ± 1.2e-05 kPa and 0.000235 ± 1.2e-05 kPa and 0.000243 ± 1.2e-05 kPa
312.19 K | 0.000329 ± 1.6e-05 kPa and 0.000306 ± 1.5e-05 kPa and 0.000304 ± 1.5e-05 kPa
314.16 K | 0.000402 ± 2e-05 kPa and 0.000397 ± 2e-05 kPa and 0.000392 ± 2e-05 kPa
316.07 K | 0.000494 ± 2.5e-05 kPa and 0.000502 ± 2.5e-05 kPa and 0.000503 ± 2.5e-05 kPa
318.18 K | 0.000657 ± 3.3e-05 kPa and 0.000619 ± 3.1e-05 kPa and 0.000617 ± 3.1e-05 kPa
320.13 K | 0.000795 ± 4e-05 kPa and 0.000792 ± 4e-05 kPa and 0.00078 ± 3.9e-05 kPa
322.06 K | 0.00096 ± 4.8e-05 kPa and 0.000984 ± 4.9e-05 kPa and 0.000991 ± 5e-05 kPa

Details | molar enthalpy [kcal/mol]
[2] | 23.2 ± 0.263
